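96-well plates; 48 h exposure; 5 concentrations. Endpoints by linear interpolation between flanking doses. Not reached: highest tested concentration assigned. Here, GI50 denotes the concentration required for 50% inhibition of growth. Definition used: TGI = concentration required for complete inhibition of growth.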
Experiments:
Experiment in all cases: NCI anticancer screen, dose series, 48 h
NCI-H460 lung = test system: NCI-H460 lung
NCI-H522 lung = test system: NCI-H522 lung
NCI/ADR-RES ovarian = test system: NCI/ADR-RES ovarian
OVCAR-3 ovarian = test system: OVCAR-3 ovarian
OVCAR-4 ovarian = test system: OVCAR-4 ovarian
OVCAR-5 ovarian = test system: OVCAR-5 ovarian
OVCAR-8 ovarian = test system: OVCAR-8 ovarian
PC-3 prostate = test system: PC-3 prostate
RPMI-8226 leukemia = test system: RPMI-8226 leukemia
RXF 393 renal = test system: RXF 393 renal
SF-268 CNS = test system: SF-268 CNS
SF-295 CNS = test system: SF-295 CNS
SF-539 CNS = test system: SF-539 CNS
SK-MEL-2 melanoma = test system: SK-MEL-2 melanoma
SK-MEL-28 melanoma = test system: SK-MEL-28 melanoma
SK-MEL-5 melanoma = test system: SK-MEL-5 melanoma
SK-OV-3 ovarian = test system: SK-OV-3 ovarian
SN12C renal = test system: SN12C renal
SNB-19 CNS = test system: SNB-19 CNS
SNB-75 CNS = test system: SNB-75 CNS
SR leukemia = test system: SR leukemia
SW-620 colon = test system: SW-620 colon
T-47D breast = test system: T-47D breast
TK-10 renal = test system: TK-10 renal
U251 CNS = test system: U251 CNS
UACC-257 melanoma = test system: UACC-257 melanoma
UACC-62 melanoma = test system: UACC-62 melanoma
UO-31 renal = test system: UO-31 renal

## c1ccc(-c2nn(-c3ccccc3)[n+](-c3cccc4ccccc34)n2)cc1
NCI-H460 lung
  GI50: 1.43 µM
  TGI: 10.4 µM
NCI-H522 lung
  GI50: 0.979 µM
  TGI: 10.9 µM
NCI/ADR-RES ovarian
  GI50: > 100 µM
  TGI: > 100 µM
OVCAR-3 ovarian
  GI50: 1.11 µM
  TGI: 19.1 µM
OVCAR-4 ovarian
  GI50: 0.394 µM
  TGI: 12.4 µM
OVCAR-5 ovarian
  GI50: 4.78 µM
  TGI: 63.2 µM
OVCAR-8 ovarian
  GI50: 1.85 µM
  TGI: 54.5 µM
PC-3 prostate
  GI50: 0.583 µM
  TGI: > 100 µM
RPMI-8226 leukemia
  GI50: 0.472 µM
  TGI: > 100 µM
RXF 393 renal
  GI50: 2.24 µM
  TGI: 31.4 µM
SF-268 CNS
  GI50: 2.04 µM
  TGI: 20.5 µM
SF-295 CNS
  GI50: 2.69 µM
  TGI: 26.6 µM
SF-539 CNS
  GI50: 2.33 µM
  TGI: 27.7 µM
SK-MEL-2 melanoma
  GI50: 2.92 µM
  TGI: 12 µM
SK-MEL-28 melanoma
  GI50: 2.36 µM
  TGI: 13.9 µM
SK-MEL-5 melanoma
  GI50: 0.674 µM
  TGI: 4.1 µM
SK-OV-3 ovarian
  GI50: 4.61 µM
  TGI: > 100 µM
SN12C renal
  GI50: 2.45 µM
  TGI: > 100 µM
SNB-19 CNS
  GI50: 2.01 µM
  TGI: > 100 µM
SNB-75 CNS
  GI50: 1.94 µM
  TGI: 14.8 µM
SR leukemia
  GI50: 0.644 µM
  TGI: 7.93 µM
SW-620 colon
  GI50: 1.44 µM
  TGI: 15.9 µM
T-47D breast
  GI50: 0.825 µM
  TGI: 17.4 µM
TK-10 renal
  GI50: 8.53 µM
  TGI: 73.6 µM
U251 CNS
  GI50: 0.967 µM
  TGI: > 100 µM
UACC-257 melanoma
  GI50: 0.48 µM
  TGI: 8.18 µM
UACC-62 melanoma
  GI50: 1.14 µM
  TGI: 3.59 µM
UO-31 renal
  GI50: 14 µM
  TGI: > 100 µM

Reference: PubChem BioAssay (NCI)
